≈ marks a conversion by molar mass, not a printed value. Like-named read-outs stand apart in the source and are kept apart here.
Columns and labels:
Type in all cases: cell-based, Helicobacter pylori
H. pylori [1] = assay: Antimicrobial activity test 2: time for sterilizing H. pylori (viable cell count in Brucella broth)
Description: A solution of the test compound was added to Brucella broth containing 5% fetal bovine serum, cultured under slightly aerobic conditions at 37° C., and the vial microbe cell number in Brucella agar containing 7% horse blood was counted at predetermined intervals. The above compound (1) was dissolved in a 1% aqueous solution of […] (DMSO), and the above compound (2) was dissolved in water to prepare a solution of each test compound. “cfu” in Tables and Figures means “colony forming unit”.

H. pylori [2] = assay: Antimicrobial activity test 5: oxethazaine in combination with compound (IV) (lansoprazole), checker board method
Text: The effect of oxethazaine used in combination with compound (IV) (lansoprazole) was examined in the same manner as in antimicrobial activity test 1, using the checker board method.
Hereinafter, the results are shown for each strain in the same manner as in antimicrobial activity test 3.

H. pylori [3] = assay: Antimicrobial activity test 1: anti-H. pylori activity of a single compound (agar plate method); conditions: for MIC: Helicobacter pylori

CN(C(=O)CN(CCO)CC(=O)N(C)C(C)(C)Cc1ccccc1)C(C)(C)Cc1ccccc1 [Oxethazaine, 2,2′-[(2-hydroxyethyl)amino]bis[N-(1,1-dimethyl-2-phenylethyl)-N-methylacetamide]]
Viable microbe cell number (H. pylori [1]; EH12, 1 MIC, 0 h): 5.60 log10cfu/ml
Viable microbe cell number (H. pylori [1]; EH12, 1 MIC, 3 h): 5.67 log10cfu/ml
Viable microbe cell number (H. pylori [1]; EH12, 1 MIC, 6 h): 5.61 log10cfu/ml
Viable microbe cell number (H. pylori [1]; EH12, 1 MIC, 9 h): 5.68 log10cfu/ml
Viable microbe cell number (H. pylori [1]; EH12, 1 MIC, 24 h): 4.51 log10cfu/ml
Viable microbe cell number (H. pylori [1]; EH12, 2 MIC, 0 h): 5.60 log10cfu/ml
Viable microbe cell number (H. pylori [1]; EH12, 2 MIC, 3 h): 1.78 log10cfu/ml
Viable microbe cell number (H. pylori [1]; EH12, 2 MIC, 6 h): 0 log10cfu/ml
Viable microbe cell number (H. pylori [1]; EH12, 2 MIC, 9 h): 0 log10cfu/ml
Viable microbe cell number (H. pylori [1]; EH12, 2 MIC, 24 h): 0 log10cfu/ml
Viable microbe cell number (H. pylori [1]; EH12, 4 MIC, 0 h): 5.60 log10cfu/ml
Viable microbe cell number (H. pylori [1]; EH12, 4 MIC, 3 h): 0 log10cfu/ml
Viable microbe cell number (H. pylori [1]; EH12, 4 MIC, 6 h): 0 log10cfu/ml
Viable microbe cell number (H. pylori [1]; EH12, 4 MIC, 9 h): 0 log10cfu/ml
Viable microbe cell number (H. pylori [1]; EH12, 4 MIC, 24 h): 0 log10cfu/ml
Viable microbe cell number (H. pylori [1]; EH12, ½ MIC, 0 h): 5.60 log10cfu/ml
Viable microbe cell number (H. pylori [1]; EH12, ½ MIC, 3 h): 5.77 log10cfu/ml
Viable microbe cell number (H. pylori [1]; EH12, ½ MIC, 6 h): 5.19 log10cfu/ml
Viable microbe cell number (H. pylori [1]; EH12, ½ MIC, 9 h): 5.71 log10cfu/ml
Viable microbe cell number (H. pylori [1]; EH12, ½ MIC, 24 h): 5.27 log10cfu/ml
sterilization curve (H. pylori [1]; FIGS. 1 to 4, compared with the antibiotic): rapidly dropping sterilization curve
Viable microbe cell number (H. pylori [1]; NCTC 11637, 1 MIC, 0 h): 5.70 log10cfu/ml
Viable microbe cell number (H. pylori [1]; NCTC 11637, 1 MIC, 3 h): 5.24 log10cfu/ml
Viable microbe cell number (H. pylori [1]; NCTC 11637, 1 MIC, 6 h): 4.98 log10cfu/ml
Viable microbe cell number (H. pylori [1]; NCTC 11637, 1 MIC, 9 h): 4.64 log10cfu/ml
Viable microbe cell number (H. pylori [1]; NCTC 11637, 1 MIC, 24 h): 4.30 log10cfu/ml
Viable microbe cell number (H. pylori [1]; NCTC 11637, 2 MIC, 0 h): 5.70 log10cfu/ml
Viable microbe cell number (H. pylori [1]; NCTC 11637, 2 MIC, 3 h): 1.90 log10cfu/ml
Viable microbe cell number (H. pylori [1]; NCTC 11637, 2 MIC, 6 h): 0 log10cfu/ml
Viable microbe cell number (H. pylori [1]; NCTC 11637, 2 MIC, 9 h): 0 log10cfu/ml
Viable microbe cell number (H. pylori [1]; NCTC 11637, 2 MIC, 24 h): 0 log10cfu/ml
Viable microbe cell number (H. pylori [1]; NCTC 11637, 4 MIC, 0 h): 5.70 log10cfu/ml
Viable microbe cell number (H. pylori [1]; NCTC 11637, 4 MIC, 3 h): 0 log10cfu/ml
Viable microbe cell number (H. pylori [1]; NCTC 11637, 4 MIC, 6 h): 0 log10cfu/ml
Viable microbe cell number (H. pylori [1]; NCTC 11637, 4 MIC, 9 h): 0 log10cfu/ml
Viable microbe cell number (H. pylori [1]; NCTC 11637, 4 MIC, 24 h): 0 log10cfu/ml
Viable microbe cell number (H. pylori [1]; NCTC 11637, ½ MIC, 0 h): 5.70 log10cfu/ml
Viable microbe cell number (H. pylori [1]; NCTC 11637, ½ MIC, 3 h): 5.48 log10cfu/ml
Viable microbe cell number (H. pylori [1]; NCTC 11637, ½ MIC, 6 h): 5.27 log10cfu/ml
Viable microbe cell number (H. pylori [1]; NCTC 11637, ½ MIC, 9 h): 5.11 log10cfu/ml
Viable microbe cell number (H. pylori [1]; NCTC 11637, ½ MIC, 24 h): 5.51 log10cfu/ml
Viable microbe cell number (H. pylori [1]; NCTC 11916, 1 MIC, 0 h): 5.72 log10cfu/ml
Viable microbe cell number (H. pylori [1]; NCTC 11916, 1 MIC, 3 h): 6.04 log10cfu/ml
Viable microbe cell number (H. pylori [1]; NCTC 11916, 1 MIC, 6 h): 5.92 log10cfu/ml
Viable microbe cell number (H. pylori [1]; NCTC 11916, 1 MIC, 9 h): 5.84 log10cfu/ml
Viable microbe cell number (H. pylori [1]; NCTC 11916, 1 MIC, 24 h): 4.67 log10cfu/ml
Viable microbe cell number (H. pylori [1]; NCTC 11916, 2 MIC, 0 h): 5.77 log10cfu/ml
Viable microbe cell number (H. pylori [1]; NCTC 11916, 2 MIC, 3 h): 3.63 log10cfu/ml
Viable microbe cell number (H. pylori [1]; NCTC 11916, 2 MIC, 6 h): 2.83 log10cfu/ml
Viable microbe cell number (H. pylori [1]; NCTC 11916, 2 MIC, 9 h): 2.61 log10cfu/ml
Viable microbe cell number (H. pylori [1]; NCTC 11916, 2 MIC, 24 h): 0 log10cfu/ml
Viable microbe cell number (H. pylori [1]; NCTC 11916, 4 MIC, 0 h): 5.77 log10cfu/ml
Viable microbe cell number (H. pylori [1]; NCTC 11916, 4 MIC, 3 h): 0 log10cfu/ml
Viable microbe cell number (H. pylori [1]; NCTC 11916, 4 MIC, 6 h): 0 log10cfu/ml
Viable microbe cell number (H. pylori [1]; NCTC 11916, 4 MIC, 9 h): 0 log10cfu/ml
Viable microbe cell number (H. pylori [1]; NCTC 11916, 4 MIC, 24 h): 0 log10cfu/ml
Viable microbe cell number (H. pylori [1]; NCTC 11916, ½ MIC, 0 h): 5.77 log10cfu/ml
Viable microbe cell number (H. pylori [1]; NCTC 11916, ½ MIC, 3 h): 5.70 log10cfu/ml
Viable microbe cell number (H. pylori [1]; NCTC 11916, ½ MIC, 6 h): 6.35 log10cfu/ml
Viable microbe cell number (H. pylori [1]; NCTC 11916, ½ MIC, 9 h): 6.32 log10cfu/ml
Viable microbe cell number (H. pylori [1]; NCTC 11916, ½ MIC, 24 h): 6.44 log10cfu/ml
effect of combined use (H. pylori [2]; strain 90-392): 90-392 (additive effect)
effect of combined use (H. pylori [2]; strain 90-397): 90-397 (synergism)
effect of combined use (H. pylori [2]; strain 90-414): 90-414 (synergism)
effect of combined use (H. pylori [2]; strain 90-414(1)): 90-414(1) (synergism)
MIC (H. pylori [3]; NCTC11637, strain NCTC11637, read-out: MIC (growth inhibition)): 25 µg/mL (≈ 53.5 µM)
MIC (H. pylori [3]; NCTC11639, strain NCTC11639, read-out: MIC (growth inhibition)): 50 µg/mL (≈ 107 µM)
MIC (H. pylori [3]; NCTC11916, strain NCTC11916, read-out: MIC (growth inhibition)): 25 µg/mL (≈ 53.5 µM)
MIC (H. pylori [3]; strain 89-355, read-out: MIC (growth inhibition)): 12.5 µg/mL (≈ 26.7 µM)
MIC (H. pylori [3]; strain 89-357, read-out: MIC (growth inhibition)): 25 µg/mL (≈ 53.5 µM)
MIC (H. pylori [3]; strain 89-360 (1), read-out: MIC (growth inhibition)): 25 µg/mL (≈ 53.5 µM)
MIC (H. pylori [3]; strain 89-360, read-out: MIC (growth inhibition)): 25 µg/mL (≈ 53.5 µM)
MIC (H. pylori [3]; strain 90-384, read-out: MIC (growth inhibition)): 25 µg/mL (≈ 53.5 µM)
MIC (H. pylori [3]; strain 90-388 (1), read-out: MIC (growth inhibition)): 25 µg/mL (≈ 53.5 µM)
MIC (H. pylori [3]; strain 90-388, read-out: MIC (growth inhibition)): 25 µg/mL (≈ 53.5 µM)
MIC (H. pylori [3]; strain 90-390 (1), read-out: MIC (growth inhibition)): 25 µg/mL (≈ 53.5 µM)
MIC (H. pylori [3]; strain 90-390, read-out: MIC (growth inhibition)): 25 µg/mL (≈ 53.5 µM)
MIC (H. pylori [3]; strain 90-392, read-out: MIC (growth inhibition)): 25 µg/mL (≈ 53.5 µM)
MIC (H. pylori [3]; strain 90-397 (first line, r19), read-out: MIC (growth inhibition)): 25 µg/mL (≈ 53.5 µM)
MIC (H. pylori [3]; strain 90-397 (second line, r25), read-out: MIC (growth inhibition)): 25 µg/mL (≈ 53.5 µM)
MIC (H. pylori [3]; strain 90-407 (1), read-out: MIC (growth inhibition)): 25 µg/mL (≈ 53.5 µM)
MIC (H. pylori [3]; strain 90-407, read-out: MIC (growth inhibition)): 25 µg/mL (≈ 53.5 µM)
MIC (H. pylori [3]; strain 90-411, read-out: MIC (growth inhibition)): 25 µg/mL (≈ 53.5 µM)
MIC (H. pylori [3]; strain 90-414 (1), read-out: MIC (growth inhibition)): 25 µg/mL (≈ 53.5 µM)
MIC (H. pylori [3]; strain 90-414, read-out: MIC (growth inhibition)): 25 µg/mL (≈ 53.5 µM)
MIC (H. pylori [3]; strain 90-428, read-out: MIC (growth inhibition)): 25 µg/mL (≈ 53.5 µM)
MIC (H. pylori [3]; strain EH12, read-out: MIC (growth inhibition)): 25 µg/mL (≈ 53.5 µM)
MIC (H. pylori [3]; strain EH13, read-out: MIC (growth inhibition)): 25 µg/mL (≈ 53.5 µM)
MIC (H. pylori [3]; strain EH16, read-out: MIC (growth inhibition)): 25 µg/mL (≈ 53.5 µM)
MIC (H. pylori [3]; strain EH26, read-out: MIC (growth inhibition)): 25 µg/mL (≈ 53.5 µM)
MIC (H. pylori [3]; summary of the strains of antimicrobial activity test 1, read-out: MIC for each strain): ~25 µg/mL (≈ 53.5 µM)
anti-H. pylori activity (H. pylori [3]; conclusion from test 1): excellent anti-H. pylori activity
